Assay results taken from PubChem BioAssay AID588613 (The Scripps Research Institute Molecular Screening Center, 2011).
Active and inactive are the calls of the source.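 How the source made its calls: active means phosphorylated EGFR protein level at least 30% below or above the solvent-only control; inactive means the rest.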

These compounds were tested against Epidermal growth factor receptor (Homo sapiens) (UniProt P00533) (assay: change in phospho-EGFR levels, up or down, late-stage follow-up, counter-screen for KLF5 inhibitor project, DLD1 cells, chemiluminescent western blot, powder samples (AID 588613)). Settings: DLD-1 cells, 24 h, at 10 µM, hits give high values.
Epidermal growth factor receptor (Homo sapiens), sequence (P00533 whole entry, looked up): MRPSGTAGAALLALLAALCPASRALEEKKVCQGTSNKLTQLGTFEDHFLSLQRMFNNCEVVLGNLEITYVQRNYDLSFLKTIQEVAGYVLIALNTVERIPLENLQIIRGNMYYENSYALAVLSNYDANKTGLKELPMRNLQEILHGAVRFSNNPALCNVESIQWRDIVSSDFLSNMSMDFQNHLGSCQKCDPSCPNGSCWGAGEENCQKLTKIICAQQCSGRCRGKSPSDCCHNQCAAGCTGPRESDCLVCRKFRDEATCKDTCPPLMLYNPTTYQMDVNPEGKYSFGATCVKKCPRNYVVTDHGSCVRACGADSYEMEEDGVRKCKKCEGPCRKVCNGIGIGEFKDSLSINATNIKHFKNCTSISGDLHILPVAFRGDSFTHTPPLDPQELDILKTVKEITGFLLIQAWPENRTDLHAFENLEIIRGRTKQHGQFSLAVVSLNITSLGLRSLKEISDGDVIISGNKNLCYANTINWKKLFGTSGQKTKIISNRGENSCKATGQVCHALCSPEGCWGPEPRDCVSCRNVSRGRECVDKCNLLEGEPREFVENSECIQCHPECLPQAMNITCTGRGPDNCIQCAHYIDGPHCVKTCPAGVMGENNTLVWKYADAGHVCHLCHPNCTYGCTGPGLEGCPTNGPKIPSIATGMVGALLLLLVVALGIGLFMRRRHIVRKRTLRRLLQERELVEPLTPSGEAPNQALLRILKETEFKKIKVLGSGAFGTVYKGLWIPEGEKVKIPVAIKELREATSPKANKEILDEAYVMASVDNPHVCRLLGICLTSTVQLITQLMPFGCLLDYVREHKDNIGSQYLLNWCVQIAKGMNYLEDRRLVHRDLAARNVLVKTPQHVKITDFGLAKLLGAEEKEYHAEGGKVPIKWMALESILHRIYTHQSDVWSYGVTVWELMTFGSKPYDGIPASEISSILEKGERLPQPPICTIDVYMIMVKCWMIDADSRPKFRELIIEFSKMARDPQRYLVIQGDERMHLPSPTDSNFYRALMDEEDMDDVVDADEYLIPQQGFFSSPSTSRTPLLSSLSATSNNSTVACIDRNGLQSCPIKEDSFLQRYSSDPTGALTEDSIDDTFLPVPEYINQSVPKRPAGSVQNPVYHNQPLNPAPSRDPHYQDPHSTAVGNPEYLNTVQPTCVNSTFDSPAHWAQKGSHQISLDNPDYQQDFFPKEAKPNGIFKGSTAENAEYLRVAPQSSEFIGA

Row | inhibition | SMILES
1 | 46.8% | CN(C(=O)CNC(=O)/C=C/c1cccc(Cl)c1)C1CCS(=O)(=O)CC1
2 | 28.2% (inactive) | CN(C(=O)COC(=O)/C=C/c1cccc([N+](=O)[O-])c1)C1CCS(=O)(=O)C1 (stereo not drawn)
3 | 60.7% | CN(C(=O)CNC(=O)/C=C/c1cccc(Cl)c1)C1CCS(=O)(=O)C1 (stereo not drawn)
